According to patent publication US9556170B2, “Substituted-1H-benzo[d]imidazole series compounds as lysine-specific demethylase 1 (LSD1) inhibitors” (University of Utah, priority 2013, dated 2017):

Molecular target: LSD1 (Homo sapiens (Human), UniProt O60341)
Experiment: LSD1 histone demethylase assay (LSD1 Inhibitor Screening Assay Kit, Cayman Chemical)
Type: biochemical
Details: H2O2/resorufin fluorescence readout, dimethyl K4 H3 peptide substrate
Experimental: Recombinant (expressed in baculovirus infected BTI insect cells) monoamine oxidase A and monoamine oxidase B (Catalog No. M7316 and M7441, respectively) were purchased from Sigma-Aldrich Co. LLC. (St. Louis, Mo.). MAO-Glo™ Assay Kit was purchased from Promega Corporation (Madison, Wis.). ATPlite™ Luminescence Assay System (e.g. Catalog No. V1401) was purchased from PerkinElmer Inc. (Waltham, Mass.).
IC50 values are determined using GraphPad Prism 5 software. The data were entered as an X-Y plot into the software as percent inhibition for each concentration of the drug. The concentration values of the drug were log transformed and the nonlinear regression was carried out using the “sigmoidal dose-response (variable slope)” option within the GraphPad software to model the data and calculate IC50 values.

IC50 | Compound
0.273 µM | CN1CCN(S(=O)(=O)c2ccc3[nH]c(Nc4cc(Cl)ccc4O)nc3c2)CC1 [Compound 2, 4-chloro-2-((5-((4-methylpiperazin-1-yl)sulfonyl)-1H-benzo[d]imidazol-2-yl)amino)phenol]
0.081 µM | O=S(=O)(c1ccc2[nH]c(Nc3cc(Cl)ccc3O)nc2c1)N1CCNCC1 [Compound 3]
